# In ChEMBL document CHEMBL4052713, “Bioactivity-guided isolation of chemical constituents against H2O2-induced neurotoxicity on PC12 from Cimicifuga dahurica (Turcz.) Maxim” (Bioorg Med Chem Lett, 2017):
# Calls of active or inactive are those of the source. The calls are words filed in the database; no cut-off is given here.
# System: PC-12
# Assay: Neuroprotective activity in rat PC12 cells assessed as reduction in H2O2-induced cytotoxicity at 1 to 10 uM pre-incubated for 24 hrs followed by H2O2 exposure for 24 hrs by MTT assay
# Format: functional, cell-based
row,SMILES,Activity
1,CCOC(=O)[C@](O)(Cc1ccc(O)cc1)[C@@H](O)C(=O)O,Active
2,CCOC(=O)[C@@H](OC(=O)/C=C/c1ccc(O[C@@H]2O[C@H](CO)[C@@H](O)[C@@H](O)[C@H]2O)c(OC)c1)[C@@](O)(Cc1ccc(O)cc1)C(=O)O,Active
3,CCOC(=O)[C@H](O)[C@@](O)(Cc1ccc(O)cc1)C(=O)O,Active
